Earlier results, collected in US11878005B2, “Formulations of deferasirox and methods of making the same” (AustinPx, LLC, priority 2015, dated 2024).

Experiments:
[1] = not given; remark: listed apart in the source

food effect on exposure (iron overload patients, administered with a high fat meal): two-fold higher exposure | total DFX dose recovered in the feces as unchanged drug (steady state (7-day dosing)): 84% | reported water solubility ([1]; 25° C.): 400 µg/mL | pH dependent solubility ([1]; acidic media): insoluble in acidic media
Compound: O=C(O)c1ccc(-n2nc(-c3ccccc3O)nc2-c2ccccc2O)cc1 [DFX, Deferasirox]
